Source: patent US9802903B2, “Process for preparing antiviral compound” (AbbVie Inc., priority 2010, dated 2017)

Experiment: Ames test (mutagenic potential)
Assay type: cell-based
Conditions: genotoxic testing of process compounds
Excerpt: As discussed above, compound I (including salts thereof) is useful as a drug for treating HCV in humans. Thus, it is important that it be so prepared that it is safe for administration to humans. As one skilled in the art would understand, one aspect of drug safety is the minimization of the amount of genotoxic impurities that are associated with the production of a given drug, and, can therefore also be present in the drug product. A couple of well established tests are used to measure the genotoxicity of chemical compounds. One such test is the computer-based Derek analysis, and the other—the Ames test, which is a biological assay that assesses the mutagenic potential of chemical compounds.

SMILES: CS(=O)(=O)Nc1ccc(I)cc1 [Compound 2a, N-(4-iodophenyl)methanesulfonamide]
- Ames test result: negative

SMILES: Nc1ccc(I)cc1 [Compound 1a, 4-iodoaniline]
- Ames test result: negative
